ChEMBL document CHEMBL3120080, “Characterization of lovastatin-docosahexaenoate anticancer properties against breast cancer cells” (Bioorg Med Chem, 2014)
Activity calls are given as the source filed them. No cut-off for these calls is given here.

Columns and labels:
HMEC [1] = assay: Cytotoxicity against human HMEC at >15 uM after 48 hrs by WST-1 assay; format: cell-based
MDA-MB-231 [2] = assay: Cell cycle arrest in PR, ER, HER2-negative human MDA-MB-231 cells assessed as accumulation at G2/M phase at 10 uM after 30 hrs by flow cytometer (reference value: 17.1 +/-2.1%); format: functional
MDA-MB-231 [3] = assay: Growth inhibition of PR, ER, HER2-negative human MDA-MB-231 cells at 1 uM after 48 hrs by WST-1 assay in presence of mevalonate; format: functional, cell-based
MDA-MB-231 [4] = assay: Cell cycle arrest in PR, ER, HER2-negative human MDA-MB-231 cells assessed as accumulation at S phase at 1 uM after 30 hrs by flow cytometer (reference value: 33.1 +/-0.3%); format: functional
MDA-MB-231 [5] = assay: Induction of apoptosis in human MDA-MB-231 cells assessed as apoptotic cells at 5 uM after 48 hrs by annexin V/propidium iodide based flow cytometry (reference value: 2.4 +/-0.5%); format: functional
MDA-MB-231 [6] = assay: Stability of the compound in human MDA-MB-231 cells assessed as DHA content at 5 uM after 24 hrs by gas chromatography; format: ADME, cell-based; conditions: mda-mb-231, 24 h
MDA-MB-231 [7] = assay: Cell cycle arrest in PR, ER, HER2-negative human MDA-MB-231 cells assessed as accumulation at G2/M phase at 1 uM after 30 hrs by flow cytometer (reference value: 17.1 +/-2.1%); format: functional
MDA-MB-361 [8] = assay: Cytotoxicity against ER-positive, HER2-positive human MDA-MB-361 cells at higher concentration after 48 hrs by WST-1 assay; format: functional, cell-based
AU565 [9] = assay: Growth inhibition of ER-negative, HER2-positive human AU565 cells at >5 uM after 48 hrs by WST-1 assay; format: functional, cell-based
Serum = assay: Stability of the compound in mouse serum at 1 mM after 2 hrs by RP-HPLC analysis; format: ADME; conditions: 1000 µM
MDA-MB-231 [10] = assay: Induction of apoptosis in human MDA-MB-231 cells assessed as apoptotic cells at 10 uM after 48 hrs by annexin V/propidium iodide based flow cytometry (reference value: 2.4 +/-0.5%); format: functional
HMEC [11] = assay: Cytotoxicity against human HMEC at 25 uM after 48 hrs by WST-1 assay; format: cell-based
MDA-MB-231 [12] = assay: Induction of apoptosis in human MDA-MB-231 cells assessed as viable cells at 1 uM after 48 hrs by annexin V/propidium iodide based flow cytometry (reference value: 93.2 +/-0.9%); format: functional; conditions: MDA-MB-231, 48 h, read-out: Activity
MDA-MB-231 [13] = assay: Induction of apoptosis in human MDA-MB-231 cells assessed as apoptotic cells at 1 uM after 48 hrs by annexin V/propidium iodide based flow cytometry (reference value: 2.4 +/-0.5%); format: functional
AU565 [14] = assay: Cytotoxicity against ER-negative, HER2-positive human AU565 cells after 48 hrs by WST-1 assay; format: functional, cell-based
MDA-MB-231 [15] = assay: Induction of apoptosis in human MDA-MB-231 cells assessed as necrotic cells at 10 uM after 48 hrs by annexin V/propidium iodide based flow cytometry (reference value: 4.4 +/-0.4%); format: functional
MDA-MB-231 [16] = assay: Cell cycle arrest in PR, ER, HER2-negative human MDA-MB-231 cells assessed as accumulation at G0/G1 phase at 10 uM after 30 hrs by flow cytometer (reference value: 49.8 +/-1.5%); format: functional
MDA-MB-231 [17] = assay: Induction of apoptosis in human MDA-MB-231 cells assessed as viable cells at 10 uM after 48 hrs by annexin V/propidium iodide based flow cytometry (reference value: 93.2 +/-0.9%); format: functional; conditions: MDA-MB-231, 48 h, read-out: Activity
MCF7 [18] = assay: Growth inhibition of ER-positive, HER2-negative human MCF7 cells after 48 hrs by WST-1 assay; format: functional, cell-based
MDA-MB-231 [19] = assay: Downregulation of p21 expression in human PR, ER, HER2-negative human MDA-MB-231 cells at 10 uM after 24 hrs by western blot analysis; format: functional, cell-based
MDA-MB-468 [20] = assay: Cytotoxicity against PR, ER, HER2-negative human MDA-MB-468 cells at >7.5 uM after 48 hrs by WST-1 assay; format: functional, cell-based
MDA-MB-231 [21] = assay: Cell cycle arrest in PR, ER, HER2-negative human MDA-MB-231 cells assessed as accumulation at G0/G1 phase at 1 uM after 30 hrs by flow cytometer (reference value: 49.8 +/-1.5%); format: functional
MDA-MB-231 [22] = assay: Cell cycle arrest in PR, ER, HER2-negative human MDA-MB-231 cells assessed as accumulation at S phase at 10 uM after 30 hrs by flow cytometer (reference value: 33.1 +/-0.3%); format: functional
MDA-MB-231 [23] = assay: Induction of apoptosis in human MDA-MB-231 cells assessed as necrotic cells at 5 uM after 48 hrs by annexin V/propidium iodide based flow cytometry (reference value: 4.4 +/-0.4%); format: functional
MDA-MB-231 [24] = assay: Induction of apoptosis in human MDA-MB-231 cells assessed as viable cells at 5 uM after 48 hrs by annexin V/propidium iodide based flow cytometry (reference value: 93.2 +/-0.9%); format: functional; conditions: MDA-MB-231, 48 h, read-out: Activity
MDA-MB-231 [25] = assay: Induction of apoptosis in human MDA-MB-231 cells assessed as necrotic cells at 1 uM after 48 hrs by annexin V/propidium iodide based flow cytometry (reference value: 4.4 +/-0.4%); format: functional
MDA-MB-231 [26] = assay: Cytotoxicity against PR, ER, HER2-negative human MDA-MB-231 cells assessed as decrease in cell viability at >5 uM after 48 hrs by WST-1 assay; format: functional, cell-based
MDA-MB-468 [27] = assay: Growth inhibition of PR, ER, HER2-negative human MDA-MB-468 cells after 48 hrs by WST-1 assay; format: functional, cell-based
AU565 [28] = assay: Total growth inhibition of ER-negative, HER2-positive human AU565 cells at >15 uM after 48 hrs by WST-1 assay; format: functional, cell-based
MDA-MB-361 [29] = assay: Growth inhibition of ER-positive, HER2-positive human MDA-MB-361 cells after 48 hrs by WST-1 assay; format: functional, cell-based
HMEC [30] = assay: Cytotoxicity against human HMEC assessed as growth inhibition after 48 hrs by WST-1 assay; format: cell-based
MDA-MB-231 [31] = assay: Growth inhibition of PR, ER, HER2-negative human MDA-MB-231 cells at <25 uM after 48 hrs by WST-1 assay; format: functional, cell-based
MDA-MB-231 [32] = assay: Growth inhibition of PR, ER, HER2-negative human MDA-MB-231 cells after 48 hrs by WST-1 assay in presence of geranylgeranyl pyrophosphate; format: functional, cell-based
AU565 [33] = assay: Growth inhibition of ER-negative, HER2-positive human AU565 cells after 48 hrs by WST-1 assay; format: functional, cell-based
MDA-MB-468 [34] = assay: Total growth inhibition of PR, ER, HER2-negative human MDA-MB-468 cells after 48 hrs by WST-1 assay; format: functional, cell-based
MCF7 [35] = assay: Total growth inhibition of ER-positive, HER2-negative human MCF7 cells after 48 hrs by WST-1 assay; format: functional, cell-based
MDA-MB-231 [36] = assay: Cytotoxicity against PR, ER, HER2-negative human MDA-MB-231 cells after 48 hrs by WST-1 assay; format: functional, cell-based
MDA-MB-231 [37] = assay: Induction of p21 expression in human PR, ER, HER2-negative human MDA-MB-231 cells at 1 to 10 uM after 24 hrs by western blot analysis; format: functional, cell-based
MDA-MB-231 [38] = assay: Total growth inhibition of PR, ER, HER2-negative human MDA-MB-231 cells at >10 uM after 48 hrs by WST-1 assay; format: functional, cell-based
MDA-MB-468 [39] = assay: Cytotoxicity against PR, ER, HER2-negative human MDA-MB-468 cells after 48 hrs by WST-1 assay; format: functional, cell-based

Compound	Activity (MDA-MB-231 [2]) [%]	growth inhibition (GI) (MDA-MB-231 [3])	Activity (MDA-MB-231 [4]) [%]	Activity (MDA-MB-231 [5]) [%]	Activity (MDA-MB-231 [7]) [%]	Activity (MDA-MB-231 [10]) [%]	viability at 1 µM (MDA-MB-231 [12]) [%]	Activity (MDA-MB-231 [13]) [%]	Activity (MDA-MB-231 [15]) [%]	Activity (MDA-MB-231 [16]) [%]	viability at 10 µM (MDA-MB-231 [17]) [%]	growth inhibition (GI) (MCF7 [18])	inhibition (MDA-MB-231 [19])	Activity (MDA-MB-231 [21]) [%]	Activity (MDA-MB-231 [22]) [%]	Activity (MDA-MB-231 [23]) [%]	viability at 5 µM (MDA-MB-231 [24]) [%]	Activity (MDA-MB-231 [25]) [%]	growth inhibition (GI) (MDA-MB-361 [29])	Activity (HMEC [30])	other results
CC/C=C\C/C=C\C/C=C\C/C=C\C/C=C\C/C=C\CCC(=O)O[C@H]1CC(=O)O[C@H](CC[C@@H]2[C@@H]3C(=C[C@H](C)C[C@@H]3OC(=O)[C@@H](C)CC)C=C[C@@H]2C)C1	14.1	Active	34.9	7.2	17.3	24.6	84.1	9.2	35.4	51.2	40	Active	Active	47.8	34.8	9.6	83.3	6.7	–	–	Activity (HMEC [1]): Toxic; Stability (MDA-MB-231 [6]): Stable; Activity (MDA-MB-361 [8]): Active; growth inhibition (GI) (AU565 [9]): Active; Stability (Serum): Stable; Activity (HMEC [11]): 25%; Activity (AU565 [14]): inactive; Activity (MDA-MB-468 [20]): Active; Activity (MDA-MB-231 [26]): Active
CC/C=C\C/C=C\C/C=C\C/C=C\C/C=C\C/C=C\CCC(=O)O [DOCONEXENT]	16.2	–	33.8	1.1	17.5	1.9	94.5	2.6	5.6	50.8	92.5	Active	Active	48.7	33	2.4	96.5	2.9	Active	Dose-dependent effect	growth inhibition (GI) (MDA-MB-468 [27]): Active; TGI (AU565 [28]): Active; growth inhibition (GI) (MDA-MB-231 [31]): Active
CC[C@H](C)C(=O)O[C@H]1C[C@@H](C)C=C2C=C[C@H](C)[C@H](CC[C@@H]3C[C@@H](O)CC(=O)O3)[C@H]21 [LOVASTATIN]	6.3	inactive	16.3	4.9	9	4.6	89.7	2.5	11.2	83.9	84.2	–	–	74.7	9.8	10.8	84.3	7.8	Active	Toxic	growth inhibition (GI) (MDA-MB-231 [32]): inactive; growth inhibition (GI) (AU565 [33]): Active; TGI (MDA-MB-468 [34]): Active; TGI (MCF7 [35]): Active; Activity (MDA-MB-231 [36]): inactive; Activity (MDA-MB-231 [37]): Active; TGI (MDA-MB-231 [38]): Active; Activity (MDA-MB-468 [39]): inactive
